Laboratory results from patent US20150238579A1, “METHODS FOR ASSEMBLING A PRODUCT FOR MODULATING AN IMMUNOMODULATORY RESPONSE IN HUMANS” (INVESTFOOD, LLC, priority 2014, published 2015).

What was measured:
THP-1 cells = assay: Cell viability (MTT assay), THP-1; format: cell-based, human; conditions: THP-1, concentrations up to 25 μM
[1] = test system: human T cell line JURKAT E6.1; assay: IFN-γ production in ionomycin/PMA-stimulated JURKAT E6.1 cells (ELISA); format: cell-based; conditions: JURKAT E6.1, 2 and 24 h pre-incubation with 0.1 to 25 μM PTSO, then 40 nM ionomycin and 0.5 μM PMA, FIG. 6
Protocol: The human T cell line JURKAT E6.1 was obtained from the Cell Culture Unit of the University of Granada (Granada, Spain) (ECACC reference number: 88042803). Cells from the human T cell line JURKAT E6.1 were cultured in RPMI 1640 (Sigma) supplemented with 10% fetal bovine serum (Sigma), 2 mM glutamine and 0.05 mM mercaptoethanol in a humidified 5% CO2 atmosphere at 37° C. The cultured cells from the human T cell line JURKAT E6.1 were seeded onto 24-well plates at the concentration of 500,000 cells/ml and pre-incubated for 2 and 24 hours with the different concentrations of the test compound (ranging from 0.1 to 25 μM of PTSO), and then stimulated with 40 nM ionomycin and 0.5 μM of PMA. After twenty four hours (24 hours), the supernatants were collected and centrifuged at 1,000 g for 10 min, and stored at −80° C. for the determination of IFN-γ levels by ELISA (GE Healthcare).

[2] = test system: human acute monocytic leukemia cell line THP-1; assay: IL-1β production in LPS/PMA-activated THP-1 cells (ELISA); format: cell-based; conditions: THP-1, 24 h pre-incubation with 0.1 to 25 μM PTSO, then 1 μg/ml LPS and 1 μM PMA, FIG. 3
Protocol: (§1) The effects of different concentrations of PTSO on cytokine production (IL-1β and IL-6) in the human acute monocytic leukemia cell line THP-1 activated by lipopolysaccharide (LPS) and phorbol 12-myristate 13-acetate (PMA) were evaluated. Of note, IL-1β and IL-6 cytokines have been reported to play a key role in the activated immune response that takes place in different inflammatory and/or immune conditions.
The human acute monocytic leukemia cell line THP-1 was obtained from the Cell Culture Unit of the University of Granada (Granada, Spain) (ECACC reference number: 88081201). These cells were cultured in Roswell Park Memorial Institute (RPMI) 1640 medium (Sigma, St Louis, Mo., USA) supplemented with 10% fetal bovine serum (Sigma), 2 mM glutamine and 0.05 mM mercaptoethanol in a humidified 5% carbon dioxide (CO2) atmosphere at 37° C. The cultured cells were seeded onto 24-well plates at a density of 5×10^5 cells/ml and pre-incubated for twenty four (24) hours with the different concentrations of the test compound (ranging from 0.1 to 25 μM of PTSO), and then stimulated with 1 μg/ml LPS and 1 μM phorbol 12-myristate 13-acetate (PMA). […]

Jurkat cells = assay: Cell viability (MTT assay), Jurkat; format: cell-based, human; conditions: concentrations up to 25 μM
CACO-2 cells = assay: Cell viability (MTT assay), CACO-2; format: cell-based, human; conditions: CACO-2, concentrations up to 25 μM
Protocol: (§2) The human colonic adenocarcinoma cell line CACO-2 was obtained from the Cell Culture Unit of the University of Granada (Granada, Spain) (ECACC reference number: 86010202). Cells from the human colonic adenocarcinoma cell line CACO-2 were cultured in RPMI 1640 (Sigma) supplemented with 10% fetal bovine serum (Sigma), 2 mM glutamine and 0.05 mM mercaptoethanol in a humidified 5% CO2 atmosphere at 37° C. The cultured cells were seeded onto 24-well plates until confluence and pre-incubated for twenty-four hours (24 hr) with the different concentrations of the test compound (ranging from 0.1 to 25 μM of PTSO), and then stimulated with 1 ng/ml IL-1β. After twenty four hours (24 hr), the supernatants were collected and centrifuged at 1,000 g for 10 min, and stored at −80° C. for the determination of IL-8 levels by ELISA (GE Healthcare). The effects of the different concentrations of PTSO on cell viability were assessed by using the methylthiazol terazolium (MTT) assay (Promega), following the same protocol of incubation of the test compound similar to that described above.

[3] = test system: human acute monocytic leukemia cell line THP-1; assay: IL-6 production in LPS/PMA-activated THP-1 cells (ELISA); format: cell-based
Protocol: as §1
The human acute monocytic leukemia cell line THP-1 was obtained from the Cell Culture Unit of the University of Granada (Granada, Spain) (ECACC reference number: 88081201). These cells were cultured in Roswell Park Memorial Institute (RPMI) 1640 medium (Sigma, St Louis, Mo., USA) supplemented with 10% fetal bovine serum (Sigma), 2 mM glutamine and 0.05 mM mercaptoethanol in a humidified 5% carbon dioxide (CO2) atmosphere at 37° C. The cultured cells were seeded onto 24-well plates at a density of 5×10^5 cells/ml and pre-incubated for twenty four (24) hours with the different concentrations of the test compound (ranging from 0.1 to 25 μM of PTSO), and then stimulated with 1 μg/ml LPS and 1 μM phorbol 12-myristate 13-acetate (PMA). After twenty-four hours, the supernatants were collected and centrifuged at 1,000 g for 10 min, and then stored at −80° C. for the determination of IL-1β and IL-6 levels by an enzyme-linked immunosorbent assay (ELISA) (GE Healthcare, Little Chalfont, UK).

[4] = test system: human epithelial colorectal adenocarcinoma cells (CACO-2); assay: IL-8 production in IL-1β-activated CACO-2 cells (ELISA); format: cell-based; conditions: Caco-2, 24 h pre-incubation with 0.1 to 25 μM PTSO, then 1 ng/ml IL-1β, FIG. 5
Protocol: The effects of different concentrations of PTSO on cytokine production (IL-8) in the epithelial cell line human epithelial colorectal adenocarcinoma cells (CACO-2) activated by IL-1β were evaluated. IL-8 acts as a neutrophil attractant, which participates in the neutrophil infiltration that occurs in mucosal sites affected by an inflammatory process.
as §2, with “After twenty four hours (24 hr), the supernatants were collected and centrifuged at 1,000 g for 10 min, and stored at −80° C. for the determination of IL-8 levels by ELISA (GE Healthcare).” left out

SMILES: CCCSS(=O)(=O)CCC [PTSO, 1-propylsulfonylsulfanylpropane]
- cell viability (THP-1 cells): did not significantly affect the viability
- production of interferon gamma (IFN-γ) [1]: modulating immune function on the production of interferon gamma (IFN-γ)
- production of IL-1β [2]: reduce the production of IL-1β in a dose-dependent manner
- cell viability (Jurkat cells): did not significantly affect the viability
- cell viability (CACO-2 cells): did not significantly affect the viability
- production of IL-6 ([3]; THP-1, 24 h pre-incubation with 0.1 to 25 μM PTSO, then 1 μg/ml LPS and 1 μM PMA, 24 h, FIG. 4): can modulate the production of IL-6
- production of IL-6 at 0.1 µM ([3]; THP-1 cells, at 0.1 µM): can increase the production of IL-6
- production of IL-6 at more than 1 mM ([3]; THP-1 cells, starting from more than 1 mM dose): a clear immunosuppressive effect is observed
- production of IL-8 cytokine [4]: demonstrated immunomodulatory activity on the production of IL-8 cytokine
